According to patent US12435128B2, “Method for predicting therapeutic effect of LSD1 inhibitor based on expression of INSM1” (TAIHO PHARMACEUTICAL CO., LTD., priority 2017, dated 2025):

Test system: HEL cells (human acute myelocytic leukemia cell lines)
Assay: Cell-growth inhibition test: HEL cells
Type: cell-based
Conditions: HEL cells; read-out: IC50 (nM), Cell-Growth Inhibition Test: HEL Cells
Protocol: Under the following conditions, an in vitro cell-growth inhibition test was performed with respect to HEL cells (human acute myelocytic leukemia cell lines), NCI-H1417 cells (human small-cell lung cancer cell lines), and NCI-H146 cells (human small-cell lung cancer cell lines).
The cells with the Example compound or with dimethylsulfoxide alone were cultured at 37° C. in a 5% carbon-dioxide-containing incubator for 5 days (HEL cells) or 10 days (NCI-H1417 cells and NCI-H146 cells). After culture, the plate was allowed to stand at room temperature for 30 minutes, and 100 μL of the supernatant was removed from each well to leave 100 μL of the cell culture solution. To each well containing the remaining 100 μL of the cell culture solution, the same amount of CellTiter-Glo 2.0 Assay (Promega, Cat #: G9242) was added. The microplate was shaken with a plate mixer for 1 minute and then allowed to stand in a dark place for 10 minutes. Thereafter, the luminescence intensity of viable cells in each well was measured using a microplate reader (PerkinElmer, EnSpire). […] Cell growth rate(%)=T/C×100 • T: The luminescence intensity in a well to which the test compound was added (count per second) • C: The luminescence intensity in a well to which dimethylsulfoxide alone was added (count per second)

Row | IC50 [nM] | Compound
1 | 5.29 | Cn1cnc2cc(-c3ccc(C(=O)N4[C@@H]5CC[C@H]4C[C@@H](N)C5)cc3-c3ccc(C#N)c(F)c3)c(F)c(F)c21 [Example 126, 4-[5-[(3-endo)-3-amino-8-azabicyclo[3.2.1]octane-8-carbonyl]-2-(6,7-difluoro-1-methyl-benzimidazol-5-yl)phenyl]-2-fluoro-benzonitrile]
2 | 3.5 | Cn1ncc2cc(-c3ccc(C(=O)N4[C@@H]5CC[C@H]4C[C@H](N)C5)cc3-c3ccc(C#N)c(F)c3)c(F)cc21 [Example 24, 4-[5-[(3-exo)-3-amino-8-azabicyclo[3.2.1]octane-8-carbonyl]-2-(6-fluoro-1-methyl-indazol-5-yl)phenyl]-2-fluoro-benzonitrile]
3 | 5.7 | CN1CCOc2cc(-c3ccc(C(=O)N4C5CCC4CC(N)C5)cc3-c3ccc(C#N)c(F)c3)ccc21 (stereo not drawn) [Example 128, 4-[5-[(3-endo)-3-amino-8-azabicyclo[3.2.1]octane-8-carbonyl]-2-(4-methyl-2,3-dihydro-1,4-benzoxazin-7-yl)phenyl]-2-fluoro-benzonitrile]
4 | 11 | Cc1ccc(-c2ccc(C(=O)N3CC[C@H](N)C3)cc2-c2ccc([N+](=O)[O-])cc2)cc1 [Example 99, [(35)-3-aminopyrrolidin-1-yl]-[3-(4-nitrophenyl)-4-(p-tolyl)phenyl]methanone]
5 | 0.27 | Cc1ccc(-c2ccc(C(=O)N3C4CCC3CC(N)C4)cc2-c2ccc(C#N)c(F)c2)c(F)c1F (stereo not drawn) [Example 144, 5′-((3-endo)-3-amino-8-azabicyclo[3.2.1]octane-8-carbonyl)-2″,3,3″-trifluoro-4″-methyl-[1,1′:2′,1″-terphenyl]-4-carbonitrile]
6 | 5.74 | N#Cc1ccc(-c2cc(C(=O)N3[C@@H]4CC[C@H]3C[C@H](N)C4)ccc2-c2ccc3cccnc3c2F)cc1F [Example 105, 4-[5-[(3-exo)-3-amino-8-azabicyclo[3.2.1]octane-8-carbonyl]-2-(8-fluoro-7-quinolyl)phenyl]-2-fluoro-benzonitrile]

Same assay, conditions: Homo sapiens, HEL, read-out: IC50 (nM), Cell-Growth Inhibition Test: HEL Cells

Row | Compound | IC50 [nM]
7 | Cc1ccc(-c2ccc(C(=O)N3CCC4(CNC4)C3)cc2-c2ccc(C#N)cc2)cc1 [Example 5, 4-[5-(2,7-diazaspiro[3.4]octane-7-carbonyl)-2-(p-tolyl)phenyl]benzonitrile] | 34.8
8 | CC(C)(O)Cn1ccc2cc(-c3ccc(C(=O)N4CC5CNCC5C4)cc3-c3ccc(C#N)c(F)c3)c(F)c(F)c21 (stereo not drawn) [Example 203, 2′-(6,7-difluoro-1-(2-hydroxy-2-methylpropyl)-1H-indol-5-yl)-3-fluoro-5′-(octahydropyrrolo[3,4-c]pyrrole-2-carbonyl)-[1,1′-biphenyl]-4-carbonitrile] | 2.45
9 | N#Cc1ccc(-c2cc(C(=O)N3CC[C@H](N)C3)ccc2-c2ccc(CC3(O)CC3)cc2)cc1 [Example 59, 4-[5-[(3S)-3-aminopyrrolidine-1-carbonyl]-2-[4-[(1-hydroxycyclopropyl)methyl]phenyl]phenyl]benzonitrile] | 32
10 | CC(C)(O)Cn1ccc2cc(-c3ccc(C(=O)N4[C@H]5CC[C@@H]4[C@H](N)C5)cc3-c3ccc(C#N)c(F)c3)c(F)cc21 (single isomer, unassigned; isomer-b) [Example 171] | 0.08
11 | CN1CCc2cc(-c3ccc(C(=O)N4CC[C@H](N)C4)cc3-c3ccc(C#N)c(F)c3)ccc21 [Example 117, 4-[5-[(3S)-3-aminopyrrolidine-1-carbonyl]-2-(1-methylindolin-5-yl)phenyl]-2-fluoro-benzonitrile] | 5.54
12 | CN(C)c1ccc(-c2ccc(C(=O)N3CC[C@H](N)C3)cc2-c2ccc(C#N)c(F)c2)cn1 [Example 100, 4-[5-[(3S)-3-aminopyrrolidine-1-carbonyl]-2-[6-(dimethylamino)-3-pyridyl]phenyl]-2-fluoro-benzonitrile] | 12.8
13 | N#Cc1ccc(-c2cc(C(=O)N3CC[C@H](N)C3)ccc2-c2ccc(C3(C4(O)CC4)CC3)cc2)cc1 [Example 68, 4-[5-[(3S)-3-aminopyrrolidine-1-carbonyl]-2-[4-[1-(1-hydroxycyclopropyl)cyclopropyl]phenyl]phenyl]benzonitrile] | 23.9
14 | COCCc1ccc(-c2ccc(C(=S)N3CC[C@H](N)C3)cc2-c2ccc(C#N)c(F)c2)c(F)c1 [Example 94, 4-[5-[(3S)-3-aminopyrrolidine-1-carbothioyl]-2-[2-fluoro-4-(2-methoxyethyl)phenyl]phenyl]-2-fluoro-benzonitrile] | 29.4

Same assay, conditions: read-out: IC50 (nM), Cell-Growth Inhibition Test: HEL Cells

Row | Compound | IC50 [nM]
15 | CCn1nnc2cc(-c3ccc(C(=O)N4[C@@H]5CC[C@H]4C[C@H](N)C5)cc3-c3ccc(C#N)c(F)c3)c(F)cc21 [Example 160, 5′-((3-endo)-3-amino-8-azabicyclo[3.2.1]octane-8-carbonyl)-2′-(1-ethyl-6-fluoro-1H-benzo[d][1,2,3]triazol-5-yl)-3-fluoro-[1,1′-biphenyl]-4-carbonitrile] | 7.03
16 | Cn1cc(C(=O)O)c2cc(-c3ccc(C(=O)N4[C@@H]5CC[C@H]4[C@@H](N)C5)cc3-c3ccc(C#N)c(F)c3)c(F)cc21 (single isomer, unassigned) [Example 224] | 46.2
17 | CC(C)(C)n1nnc2cc(-c3ccc(C(=O)N4C5CCC4CC(N)C5)cc3-c3ccc(C#N)c(F)c3)c(F)cc21 (stereo not drawn) [Example 139, 5′-((3-endo)-3-amino-8-azabicyclo[3.2.1]octane-8-carbonyl)-2′-(1-(tert-butyl)-6-fluoro-1H-benzo[d][1,2,3]triazol-5-yl)-3-fluoro-[1,1′-biphenyl]-4-carbonitrile] | 16.9
18 | Cn1nnc2cc(-c3ccc(C(=O)N4[C@@H]5CC[C@H]4C[C@@H](N)C5)cc3-c3ccc(C#N)c(F)c3)c(F)c(F)c21 [Example 145, 5′-((3-endo)-3-amino-8-azabicyclo[3.2.1]octane-8-carbonyl)-2′-(6,7-difluoro-1-methyl-1H-benzo[d][1,2,3]triazol-5-yl)-3-fluoro-[1,1′-biphenyl]-4-carbonitrile] | 1.81
19 | CC(C)(O)Cn1ncc2cc(-c3ccc(C(=O)N4[C@@H]5CC[C@H]4C[C@@H](N)C5)cc3-c3ccc(C#N)c(F)c3)c(F)c(F)c21 [Example 188, 5′-((3-endo)-3-amino-8-azabicyclo[3.2.1]octane-8-carbonyl)-2′-(6,7-difluoro-1-(2-hydroxy-2-methylpropyl)-1H-indazol-5-yl)-3-fluoro-[1,1′-biphenyl]-4-carbonitrile] | 5.95
20 | CC(C)n1c(=O)sc2cc(-c3ccc(C(=O)N4C5CCC4CC(N)C5)cc3-c3ccc(C#N)c(F)c3)ccc21 (stereo not drawn) [Example 138, 5′-((3-endo)-3-amino-8-azabicyclo[3.2.1]octane-8-carbonyl)-3-fluoro-2′-(3-isopropyl-2-oxo-2,3-dihydrobenzo[d]thiazol-6-yl)-[1,1′-biphenyl]-4-carbonitrile] | 0.9
21 | COc1c(F)c(-c2ccc(C(=O)N3[C@@H]4CC[C@H]3C[C@@H](N)C4)cc2-c2ccc(C#N)c(F)c2)cc2cnn(CC(C)(C)O)c12 [Example 186, 5′-((3-endo)-3-amino-8-azabicyclo[3.2.1]octane-8-carbonyl)-3-fluoro-2′-(6-fluoro-1-(2-hydroxy-2-methylpropyl)-7-methoxy-1H-indazol-5-yl)-[1,1′-biphenyl]-4-carbonitrile] | 6.3
